Assay results taken from article PMC2920546, “Preclinical Pharmacology of BA-TPQ, a Novel Synthetic Iminoquinone Anticancer Agent” (Marine Drugs, 2010).

What was measured:
[1] = Pharmacokinetics and tissue distribution in nude mice; assay type: in vivo
Description: Female ICR/CD-1 (18–20 g) mice were purchased from Harlan Laboratories (Indianapolis, IN), and female nude mice (nu/nu; 4–6 weeks) were purchased from Frederick Cancer Research and Development Center (Frederick, MD). All animal use and care procedures were approved by the Institutional Animal Care and Use Committee (IACUC) of the University of Alabama at Birmingham. All animals were fed with commercial diet and water ad libitum and were on an alternating 12 h light/dark cycle.
CD-1 and nude mice were randomly divided into groups of three, and were dosed either intravenously (5 mg/kg) or intraperitoneally (10 mg/kg) with BA-TPQ in PEG 400:ethanol:0.9% saline (57.1%:14.3%:28.6%). Before dosing, and at 5, 15, 30, 60 min, and 2, 4, 8, and 24 h after dosing, groups of animals (three/time point) were anesthetized, and blood was collected from the retro-orbital sinus into heparinized tubes. Plasma was obtained by centrifuging the blood samples at 14,000 rpm for 15 min. BA-TPQ was then extracted from plasma and stored at −80 °C. The brain, heart, kidneys, liver, lungs, and spleen were also collected at the same time points during necropsy, blotted on Whatman No. 1 filter paper, trimmed of extraneous fat and connective tissue, weighed, and homogenized in phosphate-buffered saline. The resulting homogenates were stored at −80 °C until further processing and analysis. Urine and feces were collected for 24 hr from mice housed in metabolic cages. After collection, the cages were also washed twice with 200 μL PBS, and the washes were collected and analyzed separately. The total urine was determined as the amount from the urine plus washes 1 and 2. Feces were homogenized in PBS, then extracted using the same procedure used for tissues.
Six hundred microliters of acetonitrile was added to 200 μL of plasma, urine, cage washes (first and second), or tissue/feces homogenate in an Eppendorf tube to precipitate proteins. After centrifugation at 14,000 rpm for 10 min, the supernatant was transferred to a glass tube and evaporated to dryness using a TurboVap® LV Concentration Workstation (Caliper Lifesciences, Hopkinton, MA). The residue was reconstituted with 500 μL ethyl acetate, sonicated for 10 min, and vortexed for 10 sec. Samples were then centrifuged again and the resulting supernatant was transferred to a new glass tube and evaporated to dryness. Finally, samples were reconstituted in 100 μL mobile phase, and 50 μL was injected into the HPLC system for analysis.
The averages of the BA-TPQ concentration in plasma and tissues following intravenous and intraperitoneal administration to three animals per time point were used for pharmacokinetic analyses using a two-compartmental model and a non-compartment model, respectively. The following pharmacokinetic parameters were estimated using Phoenix WinNonlin 6.0 (Mountain View, CA): area under the concentration-time curve (AUC, h·μg/mL), half-life (T½, h), maximum concentration (Cmax, μg/mL), time of the maximum concentration (Tmax, h), and clearance (CL, mL/h/kg), as applicable. Bioavailability (X) was calculated as X= [AUCip × doseiv]/[AUCiv × doseip].

[2] = tested on: prostate and breast cancer cell lines; parameters: method as in PMID 19274441, PMID 19936915; conditions: cell lines with varying p53 status; cited from earlier work
[3] = female, nude (nu/nu), mouse, brain, IP 10 mg/kg
[4] = female, nude (nu/nu), mouse, brain, IV 5 mg/kg
[5] = female, nude (nu/nu), mouse, heart, IP 10 mg/kg
[6] = female, nude (nu/nu), mouse, heart, IV 5 mg/kg
[7] = female, nude (nu/nu), mouse, kidneys, IP 10 mg/kg
[8] = female, nude (nu/nu), mouse, kidneys, IV 5 mg/kg
[9] = female, nude (nu/nu), mouse, liver, IP 10 mg/kg
[10] = female, nude (nu/nu), mouse, liver, IV 5 mg/kg
[11] = female, nude (nu/nu), mouse, lungs, IP 10 mg/kg
[12] = female, nude (nu/nu), mouse, lungs, IV 5 mg/kg
[13] = female, nude (nu/nu), mouse, plasma, IP 10 mg/kg
[14] = female, nude (nu/nu), mouse, plasma, IV 5 mg/kg
[15] = female, nude (nu/nu), mouse, spleen, IP 10 mg/kg
[16] = female, nude (nu/nu), mouse, spleen, IV 5 mg/kg

O=C1C(NCc2ccccc2)=CC2=NCCc3c[nH]c1c32 [BA-TPQ, 7-(benzylamino)-1,3,4,8-tetrahydropyrrolo[4,3,2-de]quinolin-8(1H)-one]
Time of greatest plasma concentration ([1]; IP 10 mg/kg): 1 h
Cl ([1]; brain, IP 10 mg/kg): 650 mL/min/kg
AUC [1, 3]: 770 ng·h/mL
Cmax [1, 3]: 90 ng/mL
Tmax [1, 3]: 60 min
half-life [1, 3]: 244 min
AUC [1, 4]: 340 ng·h/mL
Cmax [1, 4]: 620 ng/mL
clearance [1, 4]: 1730 mL/min/kg
half-life [1, 4]: 22.8 min
AUC [1, 5]: 7630 ng·h/mL
Cmax [1, 5]: 6380 ng/mL
Tmax [1, 5]: 15 min
half-life [1, 5]: 30 min
AUC [1, 6]: 6370 ng·h/mL
Cmax [1, 6]: 48800 ng/mL
clearance [1, 6]: 83.3 mL/min/kg
half-life [1, 6]: 5.4 min
AUC [1, 7]: 12600 ng·h/mL
Cmax [1, 7]: 10800 ng/mL
Tmax [1, 7]: 30 min
half-life [1, 7]: 29.4 min
AUC [1, 8]: 5480 ng·h/mL
Cmax [1, 8]: 20800 ng/mL
clearance [1, 8]: 100 mL/min/kg
half-life [1, 8]: 10.8 min
AUC [1, 9]: 2760 ng·h/mL
Cmax [1, 9]: 4560 ng/mL
Tmax [1, 9]: 4.8 min
half-life [1, 9]: 31.8 min
AUC [1, 10]: 710 ng·h/mL
Cmax [1, 10]: 2710 ng/mL
clearance [1, 10]: 817 mL/min/kg
half-life [1, 10]: 10.8 min
AUC [1, 11]: 13200 ng·h/mL
Cmax [1, 11]: 14800 ng/mL
Tmax [1, 11]: 4.8 min
half-life [1, 11]: 35.4 min
AUC [1, 12]: 9180 ng·h/mL
Cmax [1, 12]: 18400 ng/mL
clearance [1, 12]: 66.7 mL/min/kg
half-life [1, 12]: 21 min
AUC [1, 13]: 150 ng·h/mL
Cmax [1, 13]: 220 ng/mL
Tmax [1, 13]: 15 min
half-life [1, 13]: 70.2 min
bioavailability ([1]; female, nude (nu/nu), mouse, plasma, IP 10 mg/kg vs IV 5 mg/kg, read-out: Intraperitoneal bioavailability): 100%
AUC [1, 14]: 40 ng·h/mL
Cmax [1, 14]: 150 ng/mL
half-life [1, 14]: 10.2 min
AUC [1, 15]: 18300 ng·h/mL
Cmax [1, 15]: 31200 ng/mL
Tmax [1, 15]: 15 min
half-life [1, 15]: 99 min
AUC [1, 16]: 4980 ng·h/mL
Cmax [1, 16]: 11000 ng/mL
clearance [1, 16]: 117 mL/min/kg
half-life [1, 16]: 18.6 min
Cl ([1]; heart, IP 10 mg/kg): 83 mL/min/kg
Cl ([1]; kidneys, IP 10 mg/kg): 50 mL/min/kg
Cl ([1]; liver, IP 10 mg/kg): 217 mL/min/kg
Cl ([1]; lungs, IP 10 mg/kg): 50 mL/min/kg
Cl ([1]; plasma, IP 10 mg/kg): 3920 mL/min/kg
Cl ([1]; spleen, IP 10 mg/kg): 33 mL/min/kg
In vitro growth of prostate and breast cancer cell lines [2]: inhibit in vitro growth
